Measured values from US10953027B2, “Active agents and methods of their use for the treatment of metabolic disorders and nonalcoholic fatty liver disease” (Flagship Pioneering Innovations V, Inc., priority 2018, dated 2021).

Tests used:
Male DIO mice = experiment: In vivo evaluation for glucose disposal and lipidemia in DIO mice (Example 11); details: for Fasting blood glucose levels (time 0 from OGTT): 28 days, 16 hour fast; for glucose AUC (0-120 min): OGTT day 28, glucose 2.0 g/kg PO
Experimental: The DIO mice were prepared by feeding male C57BL/6 mice a high fat diet (HFD, Research Diets D12492) from 6-14 weeks of age. DIO mice were housed individually and maintained on the HFD through the duration of study. A twelve-hour light cycle was maintained with room temperature maintained at 22-25° C. All of the mice were acclimated to the facility for 5 days prior to starting the study.
Following 5 days of facility acclimation, DIO mice were randomized into 8 groups of 10 based on body weight and blood glucose for assignment to treatment, as shown in Table 9:
All treatments were administered admixed in HFD (Research Diets, New Brunswick N.J.) and were provided ad libitum for 30 days. Drinking water for group 7 was supplemented with 1, 3 Butanediol at 3% concentration.
Body weight was recorded at baseline and twice weekly thereafter. Feed and water intakes were recorded each Monday, Wednesday, and Friday.
Blood samples (<3 μL) were obtained one hour post dose by tail clip at baseline and weekly thereafter for measurement of fed blood glucose by StatStrip. Additional anti-coagulated blood samples (100 μl, EDTA di-potassium salt) were obtained by tail clip one hour post-dose at baseline, day 14 and day 30. Anti-coagulated samples were quick frozen and stored on dry ice.
Animals were subjected to a 16 hour fast for performance of an oral glucose tolerance test (OGTT) on day 28. Blood samples were obtained via tail clip just prior to (8 am) and 15, 30, 60, 90, and 120 minutes post-glucose load (2.0 g/kg, PO) for assay of whole blood glucose (StatStrip). Feed was returned following last sample.
Animals were terminated on day 30-31 using CO2 inhalation and induction of pneumothorax. Terminal blood samples were obtained by cardiac puncture. Whole blood was processed to serum and analyzed for serum cholesterol, triglycerides, high density lipoprotein (HDL), low density lipoprotein (LDL) and non-esterified fatty acids (NEFA) using AU480 clinical analyzer.
Organ weights (liver, spleen, subcutaneous fat, inguinal fat, abdominal fat, and epididymal fat) were recorded. Sections of each fat were frozen or fixed in 4% paraformaldehyde/PBS, pH 6.9; Fat samples were placed on dry ice. Fixed liver samples (4% paraformaldehyde) were sent to Premier Laboratories for H&E staining and scoring for steatosis, inflammation and fibrosis. Spleen samples were prepared in ice cold 5% bovine serum albumin (BSA) in PBS or 4% paraformaldehyde. Sections of brain, heart, lung, and small and large intestine were fixed in 10% formalin.
All data are represented as group mean±SEM. Data were analyzed using JMP (SAS software). All normalizations were calculated using terminal body weight.
Baseline differences among groups were identified using Tukey-Kramer Hsd<0.05. Treatment effects compared to control were determined using Oneway ANOVA (*, p<0.05) followed by Dunnett's test where appropriate.

[1] = Assay 1. Stability in Simulated Gastric Fluid (SGF); type: in vitro ADME; details: 1 μM, 37° C., SGF pH 1.6 with pepsin
Outline: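 Acylated compounds at a final 1 μM (diluted from 1 mM DMSO stock) were incubated at 37 °C in SGF of pH 1.6 NaCl buffer with FaSSIF powder and 0.1 mg/mL pepsin. Aliquots were quenched with acetonitrile at T0 and regular intervals, and degradation rates were determined by LC/MS.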

[2] = Assay 2. Stability in Simulated Intestinal Fluid (SIF); type: in vitro ADME; details: 1 μM, 37° C., SIF pH 6.7 with pancreatin
Outline: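 Acylated compounds at 1 μM (from 1 mM DMSO stock) in fresh SIF: FaSSIF with pancreatin in pH 6.7 phosphate buffer, agitated at 37 °C. Aliquots from T0 onward quenched with 1 volume acetonitrile; LC/MS gives degradation rates.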

[3] = Assay 3. Fecal Incubation Stability; type: in vitro ADME; details: 1 or 10 μM, human fecal slurry, anaerobic

## O=C(CCCc1ccccc1)Oc1cc(OC(=O)CCCc2ccccc2)c2c(c1)O[C@H](c1cc(OC(=O)CCCc3ccccc3)c(OC(=O)CCCc3ccccc3)c(OC(=O)CCCc3ccccc3)c1)[C@H](OC(=O)c1cc(OC(=O)CCCc3ccccc3)c(OC(=O)CCCc3ccccc3)c(OC(=O)CCCc3ccccc3)c1)C2 [Compound 5, [(2R,3R)-5,7-bis(4-phenylbutanoyloxy)-2-[3,4,5-tris(4-phenylbutanoyloxy)phenyl]chroman-3-yl] 3,4,5-tris(4-phenylbutanoyloxy)benzoate]
Male DIO mice; 0.6% in HFD
  Fasting blood glucose levels (time 0 from OGTT): 107.3 ± 5.3 mg/dL
  glucose AUC (0-120 min): 29628.0 ± 1791.7 mg/dL/min
Male DIO mice; 2% in HFD
  Fasting blood glucose levels (time 0 from OGTT): 104.7 ± 4.3 mg/dL
  glucose AUC (0-120 min): 27648.8 ± 866.3 mg/dL/min
Male DIO mice; 6% in HFD
  Fasting blood glucose levels (time 0 from OGTT): 95.1 ± 4.4 mg/dL
  glucose AUC (0-120 min): 26049.0 ± 455.4 mg/dL/min

## CC(=O)OC[C@H]1O[C@@H](OC(C)=O)[C@H](N)[C@@H](OC(C)=O)[C@@H]1OC(C)=O [Compound 194, (2S,3R,4R,5S,6R)-6-(acetoxymethyl)-3-aminotetrahydro-2H-pyran-2,4,5-triyl Triacetate]
[1]
  Assay 1 (SGF) (% Remaining @ 1 hours): C (C: >75% of the tested compound remaining)
[2]
  Assay 2 (SIF) (% @ Remaining 4 hours): A (A: <25% of the tested compound remaining)
[3]
  Assay 3 (% Remaining at 24 h): C (C: >75% of the tested compound remaining)

## CC(=O)O[C@H]1O[C@H](C(=O)O)[C@@H](OC(C)=O)[C@H](OC(C)=O)[C@H]1OC(C)=O [Compound 195, (2S,3S,4S,5R,6R)-3,4,5,6-tetraacetoxytetrahydro-2H-pyran-2-carboxylic Acid]
[1]
  Assay 1 (SGF) (% Remaining @ 1 hours): C (C: >75% of the tested compound remaining)
[2]
  Assay 2 (SIF) (% @ Remaining 4 hours): C (C: >75% of the tested compound remaining)
[3]
  Assay 3 (% Remaining at 24 h): B (B: 25-75% of the tested compound remaining)

## CCC(=O)Oc1ccc(-c2cc(=O)c3c(O)cc(OC(=O)CC)cc3o2)cc1 [Compound 199, 5-hydroxy-4-oxo-2-[4-(propanoyloxy)phenyl]-4H-chromen-7-yl Propanoate]
[1]
  Assay 1 (SGF) (% Remaining @ 1 hours): B (B: 25-75% of the tested compound remaining)
[2]
  Assay 2 (SIF) (% @ Remaining 4 hours): A (A: <25% of the tested compound remaining)
[3]
  Assay 3 (% Remaining at 24 h): A (A: <25% of the tested compound remaining)

## CCCC(=O)Oc1ccc(-c2cc(=O)c3c(OC(=O)CCC)cc(OC(=O)CCC)cc3o2)cc1 [Compound 201, 5-(butanoyloxy)-2-[4-(butanoyloxy)phenyl]-4-oxo-4H-chromen-7-yl Butanoate]
[1]
  Assay 1 (SGF) (% Remaining @ 1 hours): B (B: 25-75% of the tested compound remaining)
[2]
  Assay 2 (SIF) (% @ Remaining 4 hours): A (A: <25% of the tested compound remaining)
[3]
  Assay 3 (% Remaining at 24 h): A (A: <25% of the tested compound remaining)

## CCC(=O)Oc1ccc(-c2cc(=O)c3c(OC(=O)CC)cc(OC(=O)CC)cc3o2)cc1 [Compound 203, 4-oxo-7-(propanoyloxy)-2-[4-(propanoyloxy)phenyl]-4H-chromen-5-yl Propanoate]
[1]
  Assay 1 (SGF) (% Remaining @ 1 hours): C (C: >75% of the tested compound remaining)
[2]
  Assay 2 (SIF) (% @ Remaining 4 hours): A (A: <25% of the tested compound remaining)
[3]
  Assay 3 (% Remaining at 24 h): B (B: 25-75% of the tested compound remaining)

## CCCC(=O)O[C@@H]1[C@@H](OC(=O)CCC)[C@H](Oc2ccccc2C(=O)O)OC[C@H]1OC(=O)CCC [Compound 227, 2-{[(2S,3R,4S,5R)-3,4,5-tris(butanoyloxy)oxan-2-yl]oxy}benzoic Acid]
[1]
  Assay 1 (SGF) (% Remaining @ 1 hours): C (C: >75% of the tested compound remaining)
[2]
  Assay 2 (SIF) (% @ Remaining 4 hours): A (A: <25% of the tested compound remaining)
[3]
  Assay 3 (% Remaining at 24 h): A (A: <25% of the tested compound remaining)

## CCCC(=O)Oc1cc(OC(=O)CCC)c2c(c1)O[C@H](c1ccc(OC(=O)CCC)c(OC(=O)CCC)c1)[C@H](OC(=O)CCC)C2 [Compound 235, (2R,3R)-2-[3,4-bis(butanoyloxy)phenyl]-5,7-bis(butanoyloxy)-3,4-dihydro-2H-1-benzopyran-3-yl Butanoate]
[1]
  Assay 1 (SGF) (% Remaining @ 1 hours): C (C: >75% of the tested compound remaining)
[2]
  Assay 2 (SIF) (% @ Remaining 4 hours): A (A: <25% of the tested compound remaining)
[3]
  Assay 3 (% Remaining at 24 h): A (A: <25% of the tested compound remaining)

## CCC(=O)Oc1cc(OC(=O)CC)c2c(c1)O[C@H](c1ccc(OC(=O)CC)c(OC(=O)CC)c1)[C@H](OC(=O)CC)C2 [Compound 236, (2R,3R)-2-[3,4-bis(propanoyloxy)phenyl]-5,7-bis(propanoyloxy)-3,4-dihydro-2H-1-benzopyran-3-yl Propanoate]
[1]
  Assay 1 (SGF) (% Remaining @ 1 hours): B (B: 25-75% of the tested compound remaining)
[2]
  Assay 2 (SIF) (% @ Remaining 4 hours): A (A: <25% of the tested compound remaining)
[3]
  Assay 3 (% Remaining at 24 h): A (A: <25% of the tested compound remaining)

## O=C(Cc1c[nH]c2ccccc12)Oc1cc(C(=O)O)cc(OC(=O)Cc2c[nH]c3ccccc23)c1OC(=O)Cc1c[nH]c2ccccc12 [Compound 237, 3,4,5-tris({[2-(1H-indol-3-yl)acetyl]oxy})benzoic Acid]
[1]
  Assay 1 (SGF) (% Remaining @ 1 hours): C (C: >75% of the tested compound remaining)
[2]
  Assay 2 (SIF) (% @ Remaining 4 hours): A (A: <25% of the tested compound remaining)
[3]
  Assay 3 (% Remaining at 24 h): A (A: <25% of the tested compound remaining)

## CCC(=O)Oc1cc(C(=O)O)cc(OC(=O)CC)c1OC(=O)CC [Compound 239, 3,4,5-tris(propanoyloxy)benzoic Acid]
[1]
  Assay 1 (SGF) (% Remaining @ 1 hours): C (C: >75% of the tested compound remaining)
[2]
  Assay 2 (SIF) (% @ Remaining 4 hours): A (A: <25% of the tested compound remaining)
[3]
  Assay 3 (% Remaining at 24 h): A (A: <25% of the tested compound remaining)

## CCCC(=O)O[C@@H]1[C@H](OC(=O)CCC)C=C(C(=O)O)C[C@H]1OC(=O)CCC [Compound 255, (3R,4S,5R)-3,4,5-tris(butanoyloxy)cyclohex-1-ene-1-carboxylic Acid]
[1]
  Assay 1 (SGF) (% Remaining @ 1 hours): C (C: >75% of the tested compound remaining)
[2]
  Assay 2 (SIF) (% @ Remaining 4 hours): C (C: >75% of the tested compound remaining)
[3]
  Assay 3 (% Remaining at 24 h): B (B: 25-75% of the tested compound remaining)

## C[C@@H]1CCO[C@](C)(C(=O)Oc2ccc(/C=C/c3cc(OC(=O)[C@@]4(C)OCC[C@@H](C)O4)cc(OC(=O)[C@@]4(C)OCC[C@@H](C)O4)c3)cc2)O1 [Compound 257, 3-[(2S,4R)-2,4-dimethyl-1,3-dioxane-2-carbonyloxy]-5-[(1E)-2-{4-[(2S,4R)-2,4-dimethyl-1,3-dioxane-2-carbonyloxy]phenyl}ethenyl]phenyl (2S,4R)-2,4-dimethyl-1,3-dioxane-2-carboxylate]
[1]
  Assay 1 (SGF) (% Remaining @ 1 hours): C (C: >75% of the tested compound remaining)
[2]
  Assay 2 (SIF) (% @ Remaining 4 hours): A (A: <25% of the tested compound remaining)
[3]
  Assay 3 (% Remaining at 24 h): A (A: <25% of the tested compound remaining)

## O=C(CCc1c[nH]c2ccccc12)Oc1ccc(/C=C/c2cc(OC(=O)CCc3c[nH]c4ccccc34)cc(OC(=O)CCc3c[nH]c4ccccc34)c2)cc1 [Compound 259, 4-[(1E)-2-[3,5-bis({[3-(1H-indol-3-yl)propanoyl]oxy})phenyl]ethenyl]phenyl 3-(1H-indol-3-yl)propanoate]
[1]
  Assay 1 (SGF) (% Remaining @ 1 hours): C (C: >75% of the tested compound remaining)
[2]
  Assay 2 (SIF) (% @ Remaining 4 hours): C (C: >75% of the tested compound remaining)
[3]
  Assay 3 (% Remaining at 24 h): B (B: 25-75% of the tested compound remaining)
